Source: the supplement of paper PMC10307832

Assays:
Experiment in all cases: relative viability (nuclei count vs DMSO), 5 days (fraction); higher = more cells survive
[1] = compound: C1CNCCC1C2=CC(=NN2)C3=CC=NC=C3
Procedure, shortened: (§1)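 Lung cancer cell lines in 1536-well plates were exposed by pinning to five library-drug doses (not always all listed) √10 apart, following an overnight hold at 37 °C. MetaXpress counted Hoechst-stained nuclei from 4× images taken after 5 days without medium change. Viability is the median ratio of treated-well to vehicle-well nuclei across plates. Plates required control CV below 25% and at least one doubling.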

[2] = compound: O[C@H]1CC[C@H](Nc2ncc3nc(Nc4c(F)cc(F)cc4F)n([C@H]4CCOC4)c3n2)CC1 [Tanzisertib]
Procedure, shortened: as §1

[3] = compound: C[C@@H](N)c1ccc(C(=O)Nc2ccnc3[nH]ccc23)cc1
Procedure, shortened: as §1

[4] = compound: C1CNCCC1C2=CC(=NN2)C3=CC=NC=C3 + Cc1nc(NC(=O)N2CCC[C@H]2C(N)=O)sc1-c1ccnc(C(C)(C)C(F)(F)F)c1 [Alpelisib] (partner 2 µM)
Procedure, shortened: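 Relative viability is defined as nuclei in treated wells over nuclei in vehicle wells. Duplicate plates were run and medians reported. Lung cancer cell lines in 1536-well plates were dosed by pin tool one day after seeding, with one drug or with a fixed anchor-drug dose plus five library-drug doses (not always all listed) in √10 steps, and nuclei were counted after 5 days.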

Cell Line	relative viability ([1]; 0.08 µM)	relative viability ([1]; 0.8 µM)	relative viability ([1]; 2.53 µM)	relative viability ([1]; 8 µM)	relative viability ([2]; 0.08 µM)	relative viability ([2]; 0.253 µM)	relative viability ([2]; 0.8 µM)	relative viability ([2]; 2.53 µM)	relative viability ([2]; 8 µM)	relative viability ([3]; 0.04 µM)	relative viability ([3]; 0.1265 µM)	relative viability ([3]; 0.4 µM)	relative viability ([3]; 1.265 µM)	relative viability ([3]; 4 µM)	relative viability ([4]; first compound 0.08 µM)	relative viability ([4]; first compound 0.8 µM)	relative viability ([4]; first compound 2.53 µM)	relative viability ([4]; first compound 8 µM)
NCI-H2405	1.04	0.901	1.02	0.961	1.12	1.02	1.1	1.04	0.695	0.653	1.16	0.998	0.569	0.376	0.792	0.62	0.875	0.686
NCI-H2023	0.821	1.1	1.08	1	1.1	0.958	1	0.907	0.899	1.04	1.06	1.12	0.942	1.02	0.539	0.5	0.573	0.613
NCI-H838	0.997	0.884	1.01	0.956	0.987	0.985	0.933	0.933	0.917	0.761	0.905	0.867	0.576	0.415	0.984	1.11	1.03	0.996
NCI-H1299	1.04	1.05	0.978	0.976	1.06	1.03	1.01	0.998	1.08	0.967	0.985	0.963	0.955	0.862	1.13	1.22	1.04	1.06
NCI-H1563	0.757	0.875	0.966	1.04	1.03	1.03	0.995	0.997	0.99	0.875	1.07	0.978	0.914	1.03	0.709	0.932	0.95	0.989
NCI-H661	0.993	0.964	0.96	0.988	1.01	0.997	0.964	0.944	0.964	0.907	1.02	0.974	0.891	0.87	0.879	0.647	0.799	0.733
NCI-H1734	0.945	1.01	1.05	0.968	1.25	1.01	0.945	1.06	0.927	0.833	1.08	0.929	0.568	0.819	0.684	0.618	0.768	0.706
NCI-H596	1.02	0.995	0.983	0.959	0.927	1.05	0.893	0.914	0.818	1.06	0.905	0.907	0.815	0.967	0.508	0.488	0.526	0.532
NCI-H1944	0.903	0.964	0.987	1.01	1.14	0.966	0.971	1	0.86	1.01	0.987	1.02	0.822	0.793	0.85	0.601	0.83	0.938
